# Experimental data taken from ChEMBL document CHEMBL1151034, “De novo design of nonpeptidic HIV-1 protease inhibitors: Incorporation of structural water” (Bioorg Med Chem Lett, 1994).
# Assays:
# [1] = biological target: Human immunodeficiency virus type 1 protease (Human immunodeficiency virus 1, UniProt Q72874); test: (§1) Inhibitory activity against HIV-1 protease
# [2] = biological target: Human immunodeficiency virus type 1 protease (Human immunodeficiency virus 1) (UniProt Q72874); conditions: 100 uM
# [3] = biological target: Human immunodeficiency virus type 1 protease (Human immunodeficiency virus 1) (UniProt Q72874); test: as §1; conditions: concentration not given here
inhibition [3],SMILES,IC50 [1],inhibition [2]
,O=C1N[C@@H](Cc2ccccc2)C(O)[C@H](Cc2ccccc2)N1,> 100 µM,35%
,O=C1N(CC2CC2)[C@@H](Cc2ccccc2)C(O)[C@H](Cc2ccccc2)N1CC1CC1,9 µM,
,O=C1N(Cc2ccccc2)[C@@H](Cc2ccccc2)C(O)[C@H](Cc2ccccc2)N1Cc1ccccc1,89 µM,
6%,O=C1N(Cc2ccc3ccccc3c2)[C@@H](Cc2ccccc2)C(O)[C@H](Cc2ccccc2)N1Cc1ccc2ccccc2c1,,
,C=CCN1C(=O)N(CC=C)[C@@H](Cc2ccccc2)C(O)[C@@H]1Cc1ccccc1,53 µM,
